Legend:
mouse intestines = experiment: histological examination of intestines of CP-treated mice; type: in vivo
Procedure: (§1) The experiment procedure dosed those animals to be treated with TGFα 57 4 hours prior to challenge with CP. A single dose of CP was administered. Additional doses (as indicated) of TGFα 57 were made at 24 hours, 48 hours, 72 hours and 96 hours after the CP dose. All doses were made by IP injection. Controls were dosed with saline instead of either or both of CP and TGF-α57.
(§2) The animals were sacrificed about 4 hours after the last TGF-α57 (or saline) dose. Key organs were removed and spleens were immediately weighed after a clean incision. All the relevant organs were placed in formalin, transported for histopathological analysis, mounted, sectioned, stained and observed. The results of this histological analysis of the spleens for hematopoietic effect and the GI tract (below) provided surprising and unexpected data of the effect of TGF-α57 activity.
TGFα or a peptide from formula I, formula II, formula III, formula IV, formula V, or formula VI having TGFα activity or combinations thereof are also useful for treating mucositis associated intestinal bleeding, dyspepsia caused by with cytotoxic therapy and for improving the barrier function of the GI tract compromised by cytotoxic therapy. The in vivo experiment with seven groups of mice described above for hematopoietic effects noted in spleens also examined the GI tract of these treated mice. […] A single row of intestinal crypt is found at the base of the mucosa. These crypts that lie between adjacent villi are surrounded by the same lamina propria that form the villous cores. Both columnar absorptive cells and goblet cells cover the villous surfaces. The goblet cells contain apical clear vacuoles. […] Specifically, the villus was long and slender. Both absorptive cells and goblet cells were visible at the surface of the villi, and there was an abundant amount of goblet cells on the surface.
A 160×magnification of the intestines of a CP-treated mouse, a normal mouse and a CP treated and TGFα57 treated mouse at the same doses as described above. […] The crypts were irregularly shaped and in had various heights. […] The crypts also appeared normal.
Red cells were visible at the damaged surface indicating intestinal bleeding. […] Globlet cells appeared interspersed, necrotic and fewer in number than normal. […] Specifically, the epithelial cells appeared normal with extended brush borders. The nuclei were very densely stained and elongated.
The histological data is summarized in FIG. 4 that measured average crypt height of the three groups of mice.
An alcian blue staining method permitted differentiation of absorptive cells and goblet cells. Goblet cell mucus is stained a blue color while the absorptive cells remain less stained. […] In the normal intestine each villus extended from the luminal surface to the basal muscularis mucosal surface. Goblet cells were scattered and predominated in the base of the villus whereas columnar absorptive cells lined the luminal surface. […] The injured absorptive and goblet cells were degenerating at the tip of the villi and abundant secretory mucus material was stained in the luminal surface. In the CP/TGF-α mouse, there were an increased number of goblet cells scattered throughout the villi. The intestinal villi appeared normal with elongation. […] The luminal plasma membranes of the villi were well protected by TGF-α treatment. The number of goblet cells was counted on the average unit length of intestine.

[1] = test system: human CD34 positive and CD38 negative cells; experiment: liquid primary culture of human bone-marrow enriched CD34 cells; type: cell-based
Procedure: An additional experiment investigated TGF-α activity (using TGF-α57) on human bone-marrow enriched CD34 cells. FACS-sorted human CD34 positive and CD38 negative cells were cultured in liquid primary cultures in Iscove's modified Dulbecco's media with supplements. […] Stem Cell Factor (SCF) was used as a positive control (500 ng/ml) and provided a three-fold increase in CD34 positive cells. When a combination of SCF (500 ng/ml) and TGFα (10 ng/ml) was added, a synergistic 12-fold increase in CD34 positive cells was observed.

mouse spleen = experiment: in vivo model of general hematopoiesis with Cis Platinum (spleen weights, platelets, spleen histology)
Procedure: Hematopoietic and myeloid cells are red blood cell precursors, platelet precursors (megakaryocytes), and immune (white) blood cell precursors of various forms of T cells, B cells and macrophages. […] It should be noted that references to TGF-α as a human 50 amino acid polypeptide further include reference to human TGFα57 as an alternative variant.
as §1, §2
There was erythrocytes in the perifollicular zone surrounding both the T cell and B cell compartments of white pulp. […] The T cells stained for the T-cell receptor but were negative for CD4 and CD8 markers. Accordingly, the T-cells are double null T-cell progenitors induced by TGF-α administration.

[2] = test system: kidney tissue (primarily glomeruli); experiment: Cis-platinum kidney damage, H&E kidney histology; type: in vivo; settings: mice; CP 10 mg/kg ip; 10 μg/kg 6 hours prior to CP and 24 and 48 hours after CP
Procedure: In addition, administration of a TGF-α polypeptide, fragments, and mimetic to regenerate damaged tissue, for example, in kidney, an organ sensitive to such damage, is also disclosed herein. In an in vivo experiment, mice were administered 10 mg/kg of Cis-platinum as a single ip injection and treated mice administered 10 μg/kg a human TGF-α57 (R&D Systems, Minneapolis, Minn.). TGF-α57 was administered just before CP and in two additional doses after, by ip administration for a general systemic effect. Several organs or tissues were collected from the animals sacrificed 4 days after CP dose (or saline for no TGFα57) and tissues were examined histologically.
The cuboidal epithelium of the proximal convuluted tubule was also damaged.

[3] = test system: immune cells (T cell lineage), mast cells; experiment: immune cells, mast cells and cytokines in vivo after CP; parameters: species or system mice; settings: mice after immune-suppression by CP; lymphoid tissue, Peyers Patches, spleen
Source text: The stimulated immune cells were phenotypically identified as CD4 positive T cells and double null CD4 negative CD8 negative T cell progenitors. […] The in vivo activity of TGFα (and the functional peptides of formula I, formula II, formula III, and formula IV) to stimulate early T cell progenitors in the release of TH-1 and TH-2 cytokines and this regulation of immune phenomena. The stimulation of select immune cells, in particular cells of a T cell lineage, was seen consistently in the mice who received CP and TGF-α57 in lymphoid tissue, Peyers Patches and the spleen. Further, recruitment of help via CD4 cells in some cases boosts immune system function in general.
This is a parallel activity that is in addition to the gastrointestinal anti-inflammatory activity and prevention of mucositis of TGFα (and the functional peptides of formula I, formula II, formula III, and […]) described herein.

## TGF-α57: 57 amino acid polypeptide of formula VI: Ser-Leu-Ser-Leu-Pro-Ala-Met-Human TGFα
Mouse intestines; CP 10 mg/kg and 50 μg/kg
  intestinal structure (cross section histology): intestinal structure was very similar to the normal intestinal structure
  number of goblet cells on the average unit length of intestine (alcian blue): increased the number from CP treatment to a higher level than normal intestine
  villa surface, higher magnification: protection of the villa surface
  villi and crypts, 160× magnification: normal appearing villi
Mouse intestines; CP treatment, 50 μg/kg, FIG. 4
  average crypt height: more-than-restore crypt height loss
[1]; added alone, 10 ng/ml
  increase in CD34 positive progenitor cells: 35%
[1]; treated cultures
  proliferation of dendritic precursor cells: stimulation of the proliferation of dendritic precursor cells
Mouse spleen; CP 5 mg/kg or 10 mg/kg, 10 μg/kg or 50 μg/kg IP, FIG. 3
  spleen weights: return to normal spleen weights
Mouse spleen; CP 10 mg/kg and 50 μg/kg
  spleen histology (H&E): increased number of T cells and erythrocytes in the perifollicular zone
Mouse spleen; with CP, as opposed to CP alone
  platelet counts: higher
[2]
  glomeruli damage (H&E kidney histology): essentially protected the glomeruli from damage
[3]
  proliferation of select immune cells (T cell lineage): stimulation of proliferation of select immune cells

Source: patent publication US6677307B2, “TGF-α polypeptides, functional fragments and methods of use therefor” (Kaleidos Pharma, Inc., priority 1999, dated 2004)
